Two compounds from ChEMBL document CHEMBL6114980, “Single or double lipid-modified ultra-short antimicrobial peptides for treating infections caused by resistant bacteria” (Eur J Med Chem, 2025) can be followed below.

Active and inactive are the calls of the source. Peptide text beside a SMILES is read from it. * marks the point of attachment. Lauroyl = CCCCCCCCCCCC(=O)*; Octanoyl = CCCCCCCC(=O)*

Data set [1] in a line: Acute toxicity in male BALB/c mouse assessed inflammatory cell infiltration in spleen at 100 to 130 mg/kg, ip measured after 7 days by H and E staining based analysis. It is filed as organism-based. The conditions noted are these: in vivo, 168 h, dose 100-130 mg/kg, time 7 day.
The test system of data set [2] is Cell membrane. Kind of data set: Induction of cytoplasmic membrane depolarization in Staphylococcus aureus assessed as increase in fluorescence intensity at 0.5 to 4 times MIC measured for 1 mins by DiSC3-5 dye based fluorescence assay.
Data set [3] is described as follows: Acute toxicity in male BALB/c mouse assessed inflammatory cell infiltration in kidney at 100 to 130 mg/kg, ip measured after 7 days by H and E staining based analysis. It is filed as organism-based. Conditions: in vivo, 168 h, dose 100-130 mg/kg, time 7 day.
Data set [4] deals with Staphylococcus aureus. Description: Antibacterial activity against Staphylococcus aureus assessed as reduction in survival bacterial growth in presence of <=0.2 ug/ml trypsin measured after1 hr by absorbance based analysis. It is filed as functional, organism-based. The conditions noted are these: time 1.0 hrs.
A short description of data set [5]: Acute toxicity in male BALB/c mouse assessed inflammatory cell infiltration in lung at 100 to 130 mg/kg, ip measured after 7 days by H and E staining based analysis. The format is organism-based. The conditions noted are these: in vivo, 168 h, dose 100-130 mg/kg, time 7 day.
A short description of data set [6]: Acute toxicity in male BALB/c mouse assessed partial hepatocyte necrosis at 100 to 130 mg/kg, ip measured after 7 days by H and E staining based analysis. It is filed as organism-based. Conditions: in vivo, 168 h, dose 100-130 mg/kg, time 7 day.
For data set [7], the system named is Staphylococcus aureus. Kind of data set: Additive antibacterial activity against methicillin-resistant Staphylococcus aureus assessed as fractional inhibitory in presence of streptomycin by checker board assay. The format is functional.
Data set [8] relates to Staphylococcus aureus. Description: Synergistic antibacterial activity against Staphylococcus aureus 25923 assessed as fractional inhibitory in presence of cephalothin by checker board assay. It is filed as functional.
Data set [9] has as its system Staphylococcus aureus. Description: Antibacterial activity against Staphylococcus aureus assessed as reduction in survival bacterial growth in presence of NaCl measured after 18 to 24 hrs (reference value: 8 microM). The format is functional. Conditions: time 18-24 hrs.
The subject of data set [10] is Cell membrane. Kind of data set: Induction of cytoplasmic membrane depolarization in Escherichia coli assessed as increase in fluorescence intensity at 0.5 to 2 times MIC measured for 10 mins by DiSC3-5 dye based fluorescence assay.
The subject of data set [11] is Escherichia coli. Kind of data set: Antibacterial activity against Escherichia coli assessed as reduction in survival bacterial growth in presence <=0.02 ug/ml of trypsin measured after1 hr by absorbance based analysis. The format is functional, organism-based. The conditions noted are these: time 1.0 hrs.
The subject of data set [12] is Staphylococcus aureus. Kind of data set: Antibacterial activity against Staphylococcus aureus assessed as reduction in survival bacterial growth in presence of ZnCl2 measured after 18 to 24 hrs (reference value: 8 microM). The format is functional. Conditions: time 18-24 hrs.
Data set [13] concerns Staphylococcus aureus. Description: Antibacterial activity against Staphylococcus aureus assessed as reduction in survival bacterial growth in presence of Mgcl2 measured after 18 to 24 hrs (reference value: 8 microM). The format is functional. Conditions: time 18-24 hrs.
A short description of data set [14]: Acute toxicity in male BALB/c mouse assessed increase in interstitial space at 100 to 130 mg/kg, ip measured after 7 days by H and E staining based analysis. It is filed as organism-based. Conditions: in vivo, 168 h, dose 100-130 mg/kg, time 7 day.
The nature of data set [15]: Acute toxicity in male BALB/c mouse assessed effect on edema in heart at 100 to 130 mg/kg, ip measured after 7 days by H and E staining based analysis. The format is organism-based. Conditions: in vivo, 168 h, dose 100-130 mg/kg, time 7 day.
Data set [16] deals with Staphylococcus aureus. Kind of data set: Antibacterial activity against Staphylococcus aureus 25923 at sub-MIC concentration measured after 15 passages in presence of rifampin. The format is functional, organism-based.
A short description of data set [17]: Acute toxicity in male BALB/c mouse assessed congestion at 100 to 130 mg/kg, ip measured after 7 days by H and E staining based analysis. It is filed as organism-based. The conditions noted are these: in vivo, 168 h, dose 100-130 mg/kg, time 7 day.
Data set [18] has as its system Staphylococcus aureus. Description: Antibacterial activity against Staphylococcus aureus assessed as reduction in survival bacterial growth in presence of <= 2 ug/ml trypsin measured after1 hr by absorbance based analysis. It is filed as functional, organism-based. The conditions noted are these: time 1.0 hrs.
Data set [19] deals with Staphylococcus aureus. Description: Antibacterial activity against Staphylococcus aureus assessed as reduction in survival bacterial growth in presence of NaCl measured after 18 to 24 hrs (reference value: 4 microM). The format is functional. Conditions: time 18-24 hrs.
Data set [20] concerns Escherichia coli. Description: Antibacterial activity against Escherichia coli assessed as reduction in survival bacterial growth in presence of MgCl2 measured after 18 to 24 hrs (reference value: 8 microM). It is filed as functional. The conditions noted are these: time 18-24 hrs.
A short description of data set [21]: Acute toxicity in male BALB/c mouse assessed effect on edema in spleen at 100 to 130 mg/kg, ip measured after 7 days by H and E staining based analysis. It is filed as organism-based. The conditions noted are these: in vivo, 168 h, dose 100-130 mg/kg, time 7 day.
For data set [22], the system named is Staphylococcus aureus. Kind of data set: Additive antibacterial activity against Staphylococcus aureus 25923 assessed as fractional inhibitory in presence of cephalothin by checker board assay. The format is functional.
The test system of data set [23] is Escherichia coli. Kind of data set: Antibacterial activity against Escherichia coli assessed as reduction in survival bacterial growth in presence <=0.2 ug/ml of trypsin measured after1 hr by absorbance based analysis. The format is functional, organism-based. The conditions noted are these: time 1.0 hrs.
Data set [24] relates to Staphylococcus aureus. Kind of data set: Synergistic antibacterial activity against methicillin-resistant Staphylococcus aureus assessed as fractional inhibitory in presence of streptomycin by checker board assay. The format is functional.
The subject of data set [25] is Staphylococcus aureus. Description: Antibacterial activity against Staphylococcus aureus assessed as reduction in survival bacterial growth in presence of MgCl2 measured after 18 to 24 hrs (reference value: 4 microM). The format is functional. The conditions noted are these: time 18-24 hrs.
Data set [26] deals with Cell membrane. Kind of data set: Induction of outer membrane permeabilization in Escherichia coli assessed as increase in fluorescence intensity at 0.5 times MIC measured for 10 mins by fluorescence based NPN uptake assay.
Data set [27] is described as follows: Acute toxicity in male BALB/c mouse assessed distorted alveolar morphology at 100 to 130 mg/kg, ip measured after 7 days by H and E staining based analysis. It is filed as organism-based. The conditions noted are these: in vivo, 168 h, dose 100-130 mg/kg, time 7 day.
The nature of data set [28]: Acute toxicity in male BALB/c mouse assessed increase in inflammatory cell infiltration at 100 to 130 mg/kg, ip measured after 7 days by H and E staining based analysis. It is filed as organism-based. Conditions: in vivo, 168 h, dose 100-130 mg/kg, time 7 day.
For data set [29], the system named is Staphylococcus aureus. Description: Additive antibacterial activity against methicillin-resistant Staphylococcus aureus 113 assessed as fractional inhibitory in presence of polymyxin B by checker board assay. The format is functional.
For data set [30], the system named is Staphylococcus aureus. Description: Antibacterial activity against Staphylococcus aureus assessed as reduction in survival bacterial growth in presence of ZnCl2 measured after 18 to 24 hrs (reference value: 4 microM). The conditions noted are these: time 18-24 hrs. The format is functional.
For data set [31], the system named is Escherichia coli. Kind of data set: Antibacterial activity against Escherichia coli assessed as reduction in survival bacterial growth in presence of NaCl measured after 18 to 24 hrs (reference value: 8 microM). The format is functional. Conditions: time 18-24 hrs.
Data set [32] has as its system Staphylococcus aureus. Kind of data set: Antibacterial activity against Staphylococcus aureus assessed as reduction in survival bacterial growth in presence of FeCl3 measured after 18 to 24 hrs (reference value: 4 microM). The format is functional. Conditions: time 18-24 hrs.
The test system of data set [33] is Staphylococcus aureus. Kind of data set: Induction of morphological changes in Staphylococcus aureus assessed as cell adhesion at 2 times MIC measured after 120 mins by SEM analysis. The format is functional, organism-based.
Data set [34] has as its system Escherichia coli. Description: Antibacterial activity against Escherichia coli 25922 at sub-MIC concentration measured after 15 passages in presence of rifampin. It is filed as functional, organism-based.
Data set [35] relates to Staphylococcus aureus. Description: Antibacterial activity against Staphylococcus aureus assessed as reduction in survival bacterial growth in presence of KCl measured after 18 to 24 hrs (reference value: 4 microM). The format is functional. The conditions noted are these: time 18-24 hrs.

Consider `CCCCCCCC(=O)NCCCC[C@H](NC(=O)CCCCCCC)C(=O)N[C@@H](CCCCN)C(=O)N[C@@H](CCCCN)C(=O)N[C@@H](Cc1c[nH]c2ccccc12)C(=O)N[C@@H](Cc1c[nH]c2ccccc12)C(N)=O` (Octanoyl-K(Octanoyl)KKWW-NH2), for which the Activity result was “Non-toxic” in data set [1]; “Non-toxic” in data set [3]; “Non-toxic” in data set [5]; “Non-toxic” in data set [6]; “Active; Compound Showed Similar Effect As Quality Control Polymyxin B” in data set [10]. For the same compound, the outcome in data set [2], in [4] and in data set [11] was Active. Further, the “fractional inhibitory concentration index (FICI)” value in data set [7] amounted to 0.562; in [8], 0.5. The minimal inhibitory concentration (MIC) in data set [9], in data set [12] and in [13] was 8 µM throughout.
Take `CCCCCCCCCCCC(=O)N[C@@H](CCCCN)C(=O)N[C@@H](CCCCN)C(=O)N[C@@H](Cc1c[nH]c2ccccc12)C(=O)N[C@@H](Cc1c[nH]c2ccccc12)C(N)=O` (Lauroyl-KKWW-NH2): the Activity result is given as “Toxic” in data set [14]; “Non-toxic” in data set [15]; “Toxic” in data set [17]; “Non-toxic” in data set [21]; “Toxic” in data set [27]; “Toxic” in data set [28]. Besides, the result in [16], in [18], in data set [23], in data set [26], in [33] and in data set [34] was Active. The MIC in data set [19] was 4 µM; in [20], 8 µM; in data set [25], 4 µM; in [30], 4 µM; in data set [31], 8 µM; in data set [32], 2 µM. In addition, the minimum inhibitory concentration (MIC) in [35] turned out to be 4 µM. Besides, the figures for the “fractional inhibitory concentration index (FICI)” value in data set [22], in data set [24] and in data set [29] were 0.562, 0.375 and 0.625, respectively.

Usually MIC stands for the smallest concentration in the dilution series that meets the test's criterion for growth inhibition.
